{
  "source": "patent US8293537B2",
  "about": "“Systems and methods for hemoglobin analysis” (priority 2010, dated 2012)",
  "format_in_all_cases": "biochemical",
  "key": {"peroxidase": {"test_system": "peroxidase", "assay": "Peroxidase assay in saliva (Amplex Red)", "conditions": "500 ppm; pooled or unpooled saliva; 30 minutes; FIGS. 26-29", "method": "To determine the effect of various GRAS compounds as inhibitors of peroxidase activity, a standard assay using Amplex® Red (Life Technologies), which releases a fluorescent oxidation product.\nThe test compounds, such as GRAS materials or cocktails of same, were prepared at a concentration of 500 ppm in distilled water. For the assay, 50 μl samples of test compounds were mixed with 20-30 μl of saliva (either “pooled” or “unpooled”) prior to the addition of Amplex® Red. […] Reactions were allowed to run for 30 minutes during these assays."}, "Lysozyme": {"biological_target": "T1, Lysozyme (Homo sapiens, UniProt P61626)", "T1 sequence (P61626 19-148)": "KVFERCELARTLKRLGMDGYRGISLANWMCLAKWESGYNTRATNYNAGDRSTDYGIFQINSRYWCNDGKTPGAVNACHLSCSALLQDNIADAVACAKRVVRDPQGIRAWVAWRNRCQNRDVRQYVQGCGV", "assay": "Lysozyme inhibition saliva screening (fluorescein-labeled Micrococcus lysodeikticus)", "conditions": "100% saliva samples (data not shown)", "source_text": "Further details of these five compounds may also be seen in Table 5."}, "α-amylase": {"biological_target": "T2, α-amylase (Homo sapiens, UniProt P0DUB6)", "T2 sequence (P0DUB6 16-511)": "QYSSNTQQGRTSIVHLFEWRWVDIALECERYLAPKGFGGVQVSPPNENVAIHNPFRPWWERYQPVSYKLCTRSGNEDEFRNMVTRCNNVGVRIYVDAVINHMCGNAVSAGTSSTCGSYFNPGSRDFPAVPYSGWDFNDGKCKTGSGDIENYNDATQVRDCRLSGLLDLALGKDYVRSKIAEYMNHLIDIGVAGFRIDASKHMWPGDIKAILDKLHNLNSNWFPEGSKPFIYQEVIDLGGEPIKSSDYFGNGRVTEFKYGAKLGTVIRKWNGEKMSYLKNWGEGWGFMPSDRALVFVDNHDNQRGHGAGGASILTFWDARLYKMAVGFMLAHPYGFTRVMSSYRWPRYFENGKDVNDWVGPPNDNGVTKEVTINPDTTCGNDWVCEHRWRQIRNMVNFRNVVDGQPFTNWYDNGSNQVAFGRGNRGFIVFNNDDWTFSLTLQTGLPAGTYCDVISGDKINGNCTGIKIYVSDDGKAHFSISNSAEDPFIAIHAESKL", "assay": "α-Amylase inhibition saliva screening (chromogenic substrate, 405 nm)", "conditions": "for Ave (absorbance at 405 nm) / individual reading (absorbance at 405 nm): saliva; for Ave (absorbance at 405 nm): 5,000 ppm; for individual reading (absorbance at 405 nm): test compound prepared at 5,000 ppm, 37° C.; for α-Amylase inhibition: 100% saliva samples, FIG. 11", "source_text": "Further details of these five compounds may also be seen in Table 4."}},
  "note": "“And” between values parts separate entries of the source, which are not always exact repeats. Equal values may be shown once.",
  "data": [
    {"compound": "Cn1c(=O)c2c(ncn2C)n(C)c1=O", "note": "[CDI-33, Caffeine]", "values": [
      {"measurement": "peroxidase inhibition", "setting": "peroxidase", "result": "showed significant peroxidase inhibition capabilities"}
    ]},
    {"compound": "O=C(O)c1ccccc1", "note": "[CDI-40, Benzoic acid]", "values": [
      {"measurement": "Lysozyme inhibition", "setting": "Lysozyme", "result": "shown to inhibit Lysozyme"}
    ]},
    {"compound": "Aluminum potassium sulfate dodecahydrate [CDI-42]", "values": [
      {"measurement": "peroxidase inhibition", "setting": "peroxidase", "result": "showed significant peroxidase inhibition capabilities"},
      {"measurement": "Ave (absorbance at 405 nm)", "setting": "α-amylase; 0 min", "result": 0.92},
      {"measurement": "individual reading (absorbance at 405 nm)", "setting": "α-amylase; 0 min", "result": "0.80 and 1.13 and 0.90 and 0.84"},
      {"measurement": "α-Amylase inhibition", "setting": "α-amylase", "result": "shown to inhibit α-Amylase"},
      {"measurement": "individual reading (absorbance at 405 nm)", "setting": "α-amylase; 5 min", "result": "1.65 and 2.15 and 1.80 and 1.81"},
      {"measurement": "individual reading (absorbance at 405 nm)", "setting": "α-amylase; 15 min", "result": "2.37 and 2.38 and 2.25 and 2.17"}
    ]},
    {"compound": "COc1ccc(O)c(C(C)(C)C)c1", "note": "[CDI-39, 3-tert--butyl-hydroxyanisole]", "values": [
      {"measurement": "peroxidase inhibition", "setting": "peroxidase", "result": "showed significant peroxidase inhibition capabilities"}
    ]},
    {"compound": "Aluminum sulfate hydrate [CDI-34]", "values": [
      {"measurement": "Ave (absorbance at 405 nm)", "setting": "α-amylase; 0 min", "result": 0.40},
      {"measurement": "individual reading (absorbance at 405 nm)", "setting": "α-amylase; 0 min, sulfate hydrate", "result": "0.40 (2×) and 0.36 and 0.45"},
      {"measurement": "α-Amylase inhibition", "setting": "α-amylase", "result": "shown to inhibit α-Amylase"},
      {"measurement": "Ave (absorbance at 405 nm)", "setting": "α-amylase; 5 min", "result": 0.50},
      {"measurement": "individual reading (absorbance at 405 nm)", "setting": "α-amylase; 5 min, sulfate hydrate", "result": "0.49 and 0.50 (2×) and 0.52"},
      {"measurement": "Ave (absorbance at 405 nm)", "setting": "α-amylase; 15 min", "result": 0.56},
      {"measurement": "individual reading (absorbance at 405 nm)", "setting": "α-amylase; 15 min, sulfate hydrate", "result": "0.53 and 0.61 and 0.54 and 0.56"}
    ]}
  ]
}
